Values after ≈ are worked out from the molar mass of the structure shown. Values joined by “and” are separate entries in the source; they are usually repeats but may differ in a detail not shown here. Equal entries are not always repeated.
Assays:
OVXF 899 = assay: Two-layer soft agar culture of human tumour xenografts; assay type: cell-based; details: T/C ≤30%
Description: (§1) The in vitro activity of glycoconjugates of quinolone-a was determined on human tumour xenografts in a two-layer soft agar culture system according to Hamburger and Salmon (Science 197: 461-463).
(§2) The solid tumours were initially grown in the athymic naked mouse (NMRI nu/nu), obtained by surgery and comminuted mechanically. Individual cells were then obtained by incubation in an enzyme mixture of collagenase 0.05%, DNAse 0.07% and hyaluronidase 0.1% in RPMI at 37° C. for 30 minutes. The cells were washed 2× and then passed through a sieve of 200 μm and 20 μm mesh width.
(§3) The base layer comprises 0.2 ml of Iscoves's Modified Dulbeccos Medium with 20% foetal calf serum and 0.7% agar. 40,000 to 200,000 cells in 0.2 ml of the same medium and 0.4% agar were applied to this layer in 24 multiwell plates. The cytostatic substances were added in 0.2 ml of medium.
(§4) The cultures were incubated at 37° C. in a 7% CO2 atmosphere for 6 to 15 days. The colonies which had grown were then counted under an inverting microscope, the living colonies being stained with a tetrazolium chloride dyestuff 24 hours before the evaluation.
(§5) The effect of the active compound is expressed in per cent of surviving colonies compared with the colony count of untreated plates (T/C=colony count treated×100/control count untreated).
(§6) A substance is active if the T/C value is ≤30%.
(§7) This value is shown as the IC70 value in μg/ml in Table 8.

LXFS 538 = assay: as above; assay type: cell-based; details: T/C ≤30%
Description: as §1, §2, §3, §4, §5, §6, §7

CXF 280 = assay: as above; assay type: cell-based; details: T/C ≤30%
Description: as §1, §2, §3, §4, §5, §6, §7

SW 480 [1] = assay: as above; assay type: cell-based; details: T/C ≤30%
Description: as §1, §2, §3, §4, §5, §6, §7

MEXF 989 = assay: as above; assay type: cell-based; details: T/C ≤30%
Description: as §1, §2, §3, §4, §5, §6, §7

HT 29 [2] = assay: as above; assay type: cell-based; details: T/C ≤30%
Description: as §1, §2, §3, §4, §5, §6, §7

OVXF 1023 = assay: as above; assay type: cell-based; details: T/C ≤30%
Description: as §1, §2, §3, §4, §5, §6, §7

LXFL 529 = assay: as above; assay type: cell-based; details: T/C ≤30%
Description: as §1, §2, §3, §4, §5, §6, §7

[3] = Cleavage kinetics with human blood (HPLC); assay type: in vitro ADME; details: Table 2b; 37° C.
Excerpt: In Vitro Investigation of the Cleavability of the Glycoconjugates
Cleavage Kinetics With Human Blood

[4] = system: bone marrow parent cells of the mouse; assay: CSF-induced proliferation of bone marrow parent cells, in vitro; assay type: cell-based; details: recombinant murine GM-CSF, 7 days
Description: Bone marrow cells are flushed out of the femur of mice. 10^5 cells are incubated in McCoy SA medium (0.3% agar) together with recombinant murine GM-CSF (Genzyme; parent cell colony formation) and the substances (10^-4 to 100 μg/ml) at 37° C. and 7% CO2. 7 days later, the colonies ([…]) and clusters (17-50 cells) are counted.

B 16 F 10 = assay: Growth inhibition test (MTT) for cytotoxic properties; assay type: cell-based, mouse; details: Table 1b
How it was run: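 Cells in RPMI 1640 with 10% FCS pre-cultured 1 day at 37° C, then exposed to test substances in DMSO; growth checked after day 3 and day 6. Read-out by MTT, 5 h incubation, isopropanol solubilization, extinction at 540 nm.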

SW 480 [5] = assay: as above; assay type: cell-based, human; details: Table 1b
How it was run: (§8)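 SW 480 and HT 29 cells in RPMI 1640 with 10% FCS were seeded at 50,000 cells/ml, grown 1 day at 37 °C, then exposed to compound added in DMSO. MTT (5 mg/ml stock) was applied after day 3 and day 6 for 5 h, and formazan absorbance was read at 540 nm. IC50 values reported.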

HT 29 [6] = assay: as above; assay type: cell-based, human; details: Table 1b
How it was run: as §8

[7] = system: large-cell lung carcinoma LXFL 529; assay: In vivo inhibition of tumour growth using a naked mouse model; set-up: species or system Athymic naked mice (NMRI nu/nu strain)
Excerpt: Athymic naked mice (NMRI nu/nu strain) were used for all the in vivo experiments for investigation of the inhibition of tumour growth. The large-cell lung carcinoma LXFL 529 selected was developed by serial passage in naked mice.
The tumour was implanted subcutaneously in both flanks of nu/nu naked mice 6 to 8 weeks old. Treatment was started, regardless of the doubling time, as soon as the tumours had reached a diameter of 5-7 mm. The mice were allocated to the treatment group and the control group (5 mice per group with 8-10 evaluable tumours) by randomization. The individual tumours of the control group all grew progressively.
The size of the tumours was measured in two dimensions by means of a sliding gauge. The tumour volume, which correlates well with the cell count, was then used for all the evaluations. The volume was calculated according to the equation "length×breadth×breadth/2" ([a×b^2 ]/2, a and b represent two diameters at right angles). The values of the relative tumour volume (RTV) were calculated for each individual tumour by dividing the tumour size on day X with the tumour size on day 0 (at the time of randomization). The mean RTV values were then used for the further evaluation.
The inhibition of the increase in the tumour volume (tumor volume of the test group/control group, T/C, in per cent) was the concluding measurement value.
All the compounds were administered according to an intermittent plan in each case on day 1, 5 and 9. Furthermore, all the compounds were administered intraperitoneally (i.p.) using water as the solvent.

tumour cell lines = assay: Growth inhibition test, carbohydrate-free comparison compounds (cell line not stated); assay type: cell-based
Description: The human colon cell lines SW 480 and HT 29 (ATCC no. CCL 228 and HBT-38) and the mouse melanoma cell line B 16 F 10 were cultured in Roux dishes in RPMI 1640 medium with addition of 10% FCS. The cultures were then trypsinized and taken up in RPMI plus 10% FCS to a cell count of 50,000 cells/ml. 100 μl of cell suspension/well were introduced into a 96 microwell plate and incubated for 1 day at 37° C. in a CO2 incubating cabinet. A further 100 μl of RPMI medium and 1 μl of dimethyl sulphoxide with the test substances were then added. The growth was checked after day 3 and day 6. 40 μl of MTT solution (3-(4,5-dimethylthiazol-2-yl)-2,5-diphenyltetrazoline bromide) with an initial concentration of 5 mg/ml of H2 O were added to each microwave. The plate was incubated for 5 hours in a CO2 incubating cabinet at 37° C. The medium was then sucked off and 100 μl of i-propanol/well were added. After shaking for 30 minutes with 100 μl of H2 O, the extinction was measured at 540 nm with a Titertek Multiskan MCC/340 (Flow).

Description for SW-480: Cleavage Kinetics With Cells
(§9) 2.25 ml of PBS are incubated together with 225 μl of a cell suspension (30 mg/ml) and 25 μl of substrate stock solution (1 mg/ml in 3% dimethyl sulphoxide in PBS) at 37° C. After 1 hour and 24 hours, samples of in each case 1 ml are taken, mixed with 1 ml of ethanol and left to stand at 4° C. for 20 minutes. After centrifugation (5 minutes at 3500 rpm), 100 μl of supernatant are taken for the HPLC analysis.
Description for hepatoma: Cleavage Kinetics With Cells
as §9

COC1C(O)C(C)OC(Oc2ccc(NC(=S)NCCCCC(NC(=S)Nc3ccc(OC4OC(C)C(O)C(OC)C4O)cc3)C(=O)NC3C=CCC4CN(c5c(F)cc6c(=O)c(C(=O)O)cn(C7CC7)c6c5Cl)CC43)cc2)C1O (mixture of isomers) [Example 11.7, N-{N^α,N^ε -Bis-[O-(3--methyl-β-L-fucosyl)-4-hydroxy-phenylamino-thiocarbonyl]-D -lysyl}-quinolone-a]
IC70 /μg/ml (OVXF 899): 234 µg/mL
IC70 /μg/ml (LXFS 538): 18 µg/mL
IC70 /μg/ml (CXF 280): > 100 µg/mL
IC70 /μg/ml (SW 480 [1]): 18 µg/mL
IC70 /μg/ml (MEXF 989): 3 µg/mL
IC70 /μg/ml (HT 29 [2]): 56 µg/mL
IC70 /μg/ml (OVXF 1023): 136 µg/mL
IC70 /μg/ml (LXFL 529): 4 µg/mL
% cleavage in human blood 1 hour [3]: 0%
% cleavage in human blood 24 hours [3]: 0%
% cleavage in hepatoma 1 hour (hepatoma): 0%
% cleavage in hepatoma 24 hours (hepatoma): 0%
IC50 [μg/ml] CSF-induced proliferation of bone marrow parent cells of the mouse [4]: 2.9 µg/mL
IC50 (B 16 F 10): 15 µM
IC50 (SW 480 [5]): 12 µM
IC50 (HT 29 [6]): 13 µM
% cleavage in SW-480 1 hour (SW-480): 0%
% cleavage in SW-480 24 hours (SW-480): 0%

CC1OC(Oc2ccc(NC(=S)NC(CCCCN)C(=O)NC3C=CCC4CN(c5c(F)cc6c(=O)c(C(=O)[O-])cn(C7CC7)c6c5Cl)CC43)cc2)C(O)C(OCC(=O)[O-])C1O.[Na+].[Na+] (mixture of isomers) [Example 12.6, N-{N^α -[O-(3-O-Carboxymethyl-β-L-fucosyl)-4-hydroxy-phenylamino-thiocarbonyl]-lysyl}-quinolone-a, di-sodium salt]
IC50 [μg/ml] CSF-induced proliferation of bone marrow parent cells of the mouse [4]: 0.3 µg/mL
IC50 (B 16 F 10): 0.3 µM
IC50 (SW 480 [5]): 4 µM
IC50 (HT 29 [6]): 7 µM
Dose [mg/kg/day], maximum tolerated dose (MTD) ([7]; i.p. in water on day 1, 5 and 9): 100 mg/kg/day
Survival time ([7]; individual mice, treated at MTD i.p. on day 1, 5 and 9, di-sodium salt): 23 days and > 26 days and 26 days
Relative tumour volume [% of day 0] ([7]; on day 19, treated at MTD i.p. on day 1, 5 and 9): 300.7 % of day 0
Optimum T/C ([7]; on day 19, tumour volume of test group/control group): 19.4%

CO[C@H]1[C@H](O)[C@@H](Oc2ccc(NC(=S)NCCCC[C@H](NC(=S)Nc3ccc(O[C@H]4O[C@@H](C)[C@@H](O)[C@@H](OC)[C@@H]4O)cc3)C(=O)N[C@@H](C)C(=O)NC3C=CCC4CN(c5c(F)cc6c(=O)c(C(=O)O)cn(C7CC7)c6c5Cl)CC43)cc2)O[C@@H](C)[C@H]1O (stereo partly drawn) [Example 11.2, N-{N^α,N^ε -Bis-[O-(3-O-methyl-β-L-fucosyl)-4-hydroxy-phenylamino-thiocarbonyl]-lysyl-alanyl}-quinolone-a]
% cleavage in human blood 1 hour [3]: 0%
% cleavage in human blood 24 hours [3]: 0%
% cleavage in hepatoma 1 hour (hepatoma): 0%
% cleavage in hepatoma 24 hours (hepatoma): 0%
IC50 [μg/ml] CSF-induced proliferation of bone marrow parent cells of the mouse [4]: 22.5 µg/mL
IC50 (B 16 F 10): 9 µM
IC50 (SW 480 [5]): 30 µM
% cleavage in SW-480 1 hour (SW-480): 0%
% cleavage in SW-480 24 hours (SW-480): 0%

CO[C@H]1[C@H](O)[C@@H](Oc2ccc(NC(=S)N[C@H](C)C(=O)NC3C=CCC4CN(c5c(F)cc6c(=O)c(C(=O)O)cn(C7CC7)c6c5Cl)CC43)cc2)O[C@@H](C)[C@H]1O (stereo partly drawn) [Example 12.1, N-{N'-[O-(3-O-Methyl-β-L-fucosyl)-4hydroxy-phenylamino-thiocarbonyl]-D -alanyl}-quinolone-a]
IC70 /μg/ml (OVXF 899): 45 µg/mL (≈ 56.2 µM)
IC70 /μg/ml (LXFS 538): 0.4 µg/mL (≈ 0.5 µM)
IC70 /μg/ml (CXF 280): 70 µg/mL (≈ 87.5 µM)
IC70 /μg/ml (SW 480 [1]): 8 µg/mL (≈ 10 µM)
IC70 /μg/ml (MEXF 989): < 0.3 µg/mL
IC70 /μg/ml (HT 29 [2]): 6 µg/mL (≈ 7.5 µM)
IC70 /μg/ml (OVXF 1023): 12 µg/mL (≈ 15 µM)
IC70 /μg/ml (LXFL 529): 0.9 µg/mL (≈ 1.12 µM)
% cleavage in human blood 1 hour [3]: 0%
% cleavage in human blood 24 hours [3]: 0%
% cleavage in hepatoma 1 hour (hepatoma): 0%
% cleavage in hepatoma 24 hours (hepatoma): 0%
IC50 [μg/ml] CSF-induced proliferation of bone marrow parent cells of the mouse [4]: 0.21 µg/mL
IC50 (B 16 F 10): 0.1 µM
IC50 (SW 480 [5]): 1 µM
IC50 (HT 29 [6]): 1.5 µM
% cleavage in SW-480 1 hour (SW-480): 0%
% cleavage in SW-480 24 hours (SW-480): 0%

COC1C(O)C(C)OC(Oc2ccc(NC(=S)NC(CCCCN)C(=O)NC3C=CCC4CN(c5c(F)cc6c(=O)c(C(=O)O)cn(C7CC7)c6c5Cl)CC43)cc2)C1O [Example 12.5, N-{N^α -[O-(3-O-Methyl-β-L-fucosyl)-4-hydroxy-phenylamino-thiocarbonyl]-lysyl}-quinolone-a]
IC70 /μg/ml (OVXF 899): 55 µg/mL (≈ 64.1 µM)
IC70 /μg/ml (LXFS 538): < 0.3 µg/mL
IC70 /μg/ml (CXF 280): < 0.3 µg/mL
IC70 /μg/ml (SW 480 [1]): 10 µg/mL (≈ 11.7 µM)
IC70 /μg/ml (MEXF 989): 0.5 µg/mL (≈ 0.583 µM)
IC70 /μg/ml (HT 29 [2]): 11 µg/mL (≈ 12.8 µM)
IC70 /μg/ml (OVXF 1023): 9 µg/mL (≈ 10.5 µM)
IC70 /μg/ml (LXFL 529): 2 µg/mL (≈ 2.33 µM)
IC50 (B 16 F 10): 0.2 µM
IC50 (SW 480 [5]): 1 µM
IC50 (HT 29 [6]): 4 µM

N-[N^α,N^ε -bis-(4-hydroxyphenylamino-thiocarbonyl)-lysyl-D-alanyl]-batracyline
IC50 (tumour cell lines): > 250 µM

N-[N^α,N^ε -bis-(4-hydroxyphenylamino-thiocarbonyl)-lysyl]-batracyline
IC50 (tumour cell lines): > 250 µM
